Test results published in patent US8987311B2, “Triazolyl-substituted pyridyl compounds useful as kinase inhibitors” (Bristol-Myers Squibb Company, priority 2012, dated 2015).

target: T1, IRAK4 (Homo sapiens, UniProt Q9NWZ3); assay: IRAK4 Inhibition Assay; format: biochemical; conditions: ATP 500 μM; FL-IPTSPITTTYFFFKKK peptide 1.5 μM; IRAK4 0.6 nM; 60 min room temperature; Caliper LabChip 3000
T1 sequence (Q9NWZ3 1-460): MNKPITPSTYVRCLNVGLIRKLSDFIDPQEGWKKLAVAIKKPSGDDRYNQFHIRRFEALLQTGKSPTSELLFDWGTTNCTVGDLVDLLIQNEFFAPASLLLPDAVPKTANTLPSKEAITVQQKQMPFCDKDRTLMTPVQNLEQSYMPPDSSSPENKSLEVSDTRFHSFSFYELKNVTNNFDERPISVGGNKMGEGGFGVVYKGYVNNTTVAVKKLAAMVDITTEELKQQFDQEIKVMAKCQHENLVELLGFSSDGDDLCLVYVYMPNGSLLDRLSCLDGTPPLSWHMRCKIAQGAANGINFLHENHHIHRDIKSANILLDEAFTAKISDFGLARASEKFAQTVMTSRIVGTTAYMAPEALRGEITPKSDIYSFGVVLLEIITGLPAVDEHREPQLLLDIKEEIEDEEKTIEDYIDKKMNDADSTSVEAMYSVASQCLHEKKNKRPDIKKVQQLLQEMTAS
Method: The assays were performed in U-bottom 384-well plates. The final assay volume was 30 μL prepared from 15 μL additions of enzyme and substrates (fluoresceinated peptide and ATP) and test compounds in assay buffer (20 mM HEPES pH 7.2, 10 mM MgCl2, 0.015% Brij35 and 4 mM DTT). The reaction was initiated by the combination of IRAK4 with substrates and test compounds. The reaction was incubated at room temperature for 60 min. and terminated by adding 45 μL of 35 mM EDTA to each sample. The reaction mixture was analyzed on the Caliper LabChip 3000 (Caliper, Hopkinton, Mass.) by electrophoretic separation of the fluorescent substrate and phosphorylated product. Inhibition data were calculated by comparison to no enzyme control reactions for 100% inhibition and vehicle-only reactions for 0% inhibition. The final concentrations of reagents in the assays are ATP, 500 μM; FL-IPTSPITTTYFFFKKK peptide 1.5 μM; IRAK4, 0.6 nM; and DMSO, 1.6%.

IC50 [µM] | Structure (SMILES)
0.0028 | CC(C)Nc1cc(Nc2ccc3ncsc3c2)ncc1-c1nnc(C(=O)N2CCC(O)C2)s1 (single isomer, unassigned) [Example 6, (5-(6-(Benzo[d]thiazol-6-ylamino)-4-(isopropylamino)pyridin-3-yl)-1,3,4-thiadiazol-2-yl)(3-hydroxypyrrolidin-1-yl)methanone]
0.0032 | CC(C)Nc1cc(Nc2ccc3ncsc3c2)ncc1-c1nnc(C(=O)N2CCC(O)C2)s1 (single isomer, unassigned) [Example 7, (5-(6-(Benzo[d]thiazol-6-ylamino)-4-(isopropylamino)pyridin-3-yl)-1,3,4-thiadiazol-2-yl)(3-hydroxypyrrolidin-1-yl)methanone]
0.0253 | CC(C)Nc1cc(Nc2ccc3ncsc3c2)ncc1-c1nnc[nH]1 [Example 1, N2-(benzo[d]thiazol-6-yl)-N4-isopropyl-5-(4H-1,2,4-triazol-3-yl)pyridine-2,4-diamine]
0.0025 | CC(C)Nc1cc(Nc2ccc3nsnc3c2)ncc1-c1nnc(C(=O)N2CC[C@@H](O)C2)s1 [Example 3, (R)-(5-(6-(Benzo[c][1,2,5]thiadiazol-5-ylamino)-4-(isopropylamino)pyridin-3-yl)-1,3,4-thiadiazol-2-yl)-(3-hydroxypyrrolidin-1-yl)methanone]
0.0033 | CC(=O)NC1CCN(C(=O)c2nnc(-c3cnc(Nc4ccc5ncsc5c4)cc3NC(C)C)s2)C1 (centres unmarked) [Example 8, N-(1-(5-(6-(benzo[d]thiazol-6-ylamino)-4-(isopropylamino)pyridin-3-yl)-1,3,4-thiadiazole-2-carbonyl)pyrrolidin-3-yl)acetamide]
0.0032 | CNC(=O)c1ccc(Nc2cc(Nc3ccc4ncsc4c3)ncc2-c2nnc(C(=O)N3CC[C@@H](O)C3)s2)cc1 [Example 19, (R)-4-((2-(benzo[d]thiazol-6-ylamino)-5-(5-(3-hydroxypyrrolidine-1-carbonyl)-1,3,4-thiadiazol-2-yl)pyridin-4-yl)amino)-N-methylbenzamide]
0.961 | CCOC(=O)c1nc(-c2cnc(Nc3ccc4ncsc4c3)cc2NC(C)C)sc1C [Example 23, Ethyl 2-(6-(benzo[d]thiazol-6-ylamino)-4-(isopropylamino)pyridin-3-yl)-5-methylthiazole-4-carboxylate]
0.0027 | Cc1sc(-c2cnc(Nc3ccc4ncsc4c3)cc2NC(C)C)nc1C(=O)NCCCN1CCCCC1 [Example 25, 2-(6-(benzo[d]thiazol-6-ylamino)-4-(isopropylamino)pyridin-3-yl)-5-methyl-N-(3-(piperidin-1-yl)propyl)thiazole-4-carboxamide]
0.764 | CC(C)Nc1cc(Nc2ccc3ncsc3c2)ncc1-c1nc(C(=O)N2CCN(c3ccc(F)cc3F)CC2)cs1 [Example 31, (2-(6-(Benzo[d]thiazol-6-ylamino)-4-(isopropylamino)pyridin-3-yl)thiazol-4-yl)(4-(2,4-difluorophenyl)piperazin-1-yl)methanone]
0.576 | CC(C)Nc1cc(Nc2ccc3ncsc3c2)ncc1-c1nc(C(=O)N2CCC3(CC2)C(=O)NCN3c2ccccc2)cs1 [Example 48, 8-(2-(6-(Benzo[d]thiazol-6-ylamino)-4-(isopropylamino)pyridin-3-yl)thiazole-4-carbonyl)-1-phenyl-1,3,8-triazaspiro[4.5]decan-4-one]
0.795 | CC(C)Nc1cc(Nc2ccc3ncsc3c2)ncc1-c1nc(C(=O)NCC2CCCCC2)cs1 [Example 56, 2-(6-(Benzo[d]thiazol-6-ylamino)-4-(isopropylamino)pyridin-3-yl)-N-(cyclohexylmethyl)thiazole-4-carboxamide]
0.024 | CC(C)Nc1cc(Nc2ccc3ncsc3c2)ncc1-c1nc(C(=O)NCC2CCCO2)cs1 (centres unmarked) [Example 59, 2-(6-(Benzo[d]thiazol-6-ylamino)-4-(isopropylamino)pyridin-3-yl)-N-((tetrahydrofuran-2-yl)methyl)thiazole-4-carboxamide]
0.026 | CC(C)Nc1cc(Nc2ccc3ncsc3c2)ncc1-c1nc(C(=O)NC[C@H](O)c2ccccc2)cs1 [Example 81, (R)-2-(6-(Benzo[d]thiazol-6-ylamino)-4-(isopropylamino)pyridin-3-yl)-N-(2-hydroxy-2-phenylethyl)thiazole-4-carboxamide]
0.0031 | CC(C)Nc1cc(Nc2ccc3ncsc3c2)ncc1-c1nc(C(=O)NCCCN2CCCC2)cs1 [Example 82, 2-(6-(Benzo[d]thiazol-6-ylamino)-4-(isopropylamino)pyridin-3-yl)-N-(3-(pyrrolidin-1-yl)propyl)thiazole-4-carboxamide]
0.875 | Cc1oc(-c2cnc(Nc3ccc4ncsc4c3)cc2NC(C)C)nc1NC(=O)OC(C)(C)C [Example 106, tert-butyl 2-(6-(benzo[d]thiazol-6-ylamino)-4-(isopropylamino)pyridin-3-yl)-5-methyloxazol-4-ylcarbamate]
0.0027 | CC(C)Nc1cc(Nc2ccc3ncsc3c2)ncc1-c1nc(C(N)=O)co1 [Example 108, 2-(6-(Benzo[d]thiazol-6-ylamino)-4-(isopropylamino)pyridin-3-yl)oxazole-4-carboxamide]
0.0229 | CC(C)Nc1cc(Nc2ccc(C#N)cc2)ncc1-c1nnc(NC[C@@H](F)CO)o1 [Example 115, (R)-4-((5-(5-((2-Fluoro-3-hydroxypropyl)amino)-1,3,4-oxadiazol-2-yl)-4-(isopropylamino)pyridin-2-yl)amino)benzonitrile]
0.0264 | CC(C)Nc1cc(Nc2ccc3ncsc3c2)ncc1-c1nnc(NC2CNC2)o1 [Example 128, 5-(5-(Azetidin-3-ylamino)-1,3,4-oxadiazol-2-yl)-N2-(benzo[d]thiazol-6-yl)-N4-isopropylpyridine-2,4-diamine]
0.0254 | CC(C)Nc1cc(Nc2ccc3ncsc3c2)ncc1-c1nnc(N2CCN(CCO)CC2)o1 [Example 129, 2-(4-(5-(6-(Benzo[d]thiazol-6-ylamino)-4-(isopropylamino)pyridin-3-yl)-1,3,4-oxadiazol-2-yl)piperazin-1-yl)ethanol]
0.0221 | CC(C)Nc1cc(Nc2ccc3ncsc3c2)ncc1-c1nnc(N2CCN(CCN3CCOCC3)CC2)o1 [Example 130, N2-(benzo[d]thiazol-6-yl)-N4-isopropyl-5-(5-(4-(2-morpholinoethyl)piperazin-1-yl)-1,3,4-oxadiazol-2-yl)pyridine-2,4-diamine]
0.676 | CC(C)Nc1cc(Nc2ccc3ncsc3c2)ncc1-c1nnc(-c2ccc(F)c(S(=O)(=O)NC(C)(C)C)c2)o1 [Example 143, 5-(5-(6-(Benzo[d]thiazol-6-ylamino)-4-(isopropylamino)pyridin-3-yl)-1,3,4-oxadiazol-2-yl)-N-(tert-butyl)-2-fluorobenzenesulfonamide]
0.564 | CC(C)Nc1cc(Nc2ccc3ncsc3c2)ncc1-c1nnc(-c2cccc(C(N)=O)c2)o1 [Example 148, 3-(5-(6-(Benzo[d]thiazol-6-ylamino)-4-(isopropylamino)pyridin-3-yl)-1,3,4-oxadiazol-2-yl)benzamide]
0.0245 | NC(=O)c1nnc(-c2cnc(Nc3ccc4ncsc4c3)cc2N[C@H](CO)Cc2ccccc2)o1 [Example 152, (S)-5-(6-(Benzo[d]thiazol-6-ylamino)-4-((1-hydroxy-3-phenylpropan-2-yl)amino)pyridin-3-yl)-1,3,4-oxadiazole-2-carboxamide]
0.023 | CC(C)Nc1cc(Nc2ccc3ncsc3c2)ncc1-c1nnc(C(=O)N2CCC(N)CC2)o1 [Example 161, (4-Aminopiperidin-1-yl)(5-(6-(benzo[d]thiazol-6-ylamino)-4-(isopropylamino)pyridin-3-yl)-1,3,4-oxadiazol-2-yl)methanone]
0.616 | COc1cccc(-c2cnc(Nc3ccc4ncsc4c3)cc2NC(C)C)n1 [Example 176, N6′-(Benzo[d]thiazol-6-yl)-N4′-isopropyl-6-methoxy-[2,3′-bipyridine]-4′,6′-diamine]
0.813 | CC(C)Nc1cc(Nc2ccc3ncsc3c2)ncc1-c1ccc2cn[nH]c2c1 [Example 177, N2-(Benzo[d]thiazol-6-yl)-5-(1H-indazol-6-yl)-N4-isopropylpyridine-2,4-diamine]
